The compounds below were run on adjuvant arthritis (assay: rat adjuvant arthritis test (chronic; killed human tubercle bacilli, compounds given daily by mouth for 21 days)). Conditions: daily by mouth for 21 days, reference 2-(2-fluoro-4-biphenylyl)propionic acid = 1.
Format: in vivo
Procedure: The best method of indicating long acting anti-inflammatory activity of the compounds is by means of a test in which compounds are administered chronically e.g. the rat adjuvant arthritis test. […] The adjuvant arthritis test conducted on the rat is, however a chronic test and is believed to give a good indication of the effectiveness of the compounds for the treatment of chronic conditions in humans. The adjuvant arthritis test is described by Newbould, B. B., in Br. J. Pharmac. Chemother., 1963, 21, 127. In the test arthritis is produced by injecting intradermally into the tail 0.1 ml. of a suspension of killed human tubercle bacilli (6 mg./ml.) in liquid paraffin BP. A polyarthritis develops over the next 3 weeks in untreated controls. The compounds under test (vehicle only for control animals) are given daily by mouth from the day the adjuvant is injected for 21 days. On day 21 the degree of arthritis is assessed on each hind foot. The degree of inhibition produced by a compound is estimated by comparison of the total arthritic scores with those found in the controls.
In the following Table are given the results in the adjuvant arthritis test for the four preferred compounds of the invention and 2-(2-fluoro-4-biphenylyl)propionic acid, the latter compound being used as a standard of reference in the adjuvant arthritis test.
As with the propionic acids of the invention the half-life of the compounds of the invention in the blood of the subject to which they are administered is a good indication of their duration of activity. The half-life may ve measured by giving oral doses of the compounds and determining levels in the plasma at various times thereafer, as previously described. As with the propionic acids of the invention one of the best methods of indicating long acting anti-inflammatory activity of the compounds is by means of a test in which compounds are administered chronically e.g. the rat adjuvant arthritis test.

Question: `CC(C(=O)O)c1ccc(-c2ccc(F)cc2Cl)c(F)c1` (stereo not drawn) [2-(2'-chloro-2,4'-difluoro-4-biphenylyl)propionic acid] was tested. Which “ADJUVANT ARTHRITIS (activity; 2-(2-fluoro-4-biphenylyl)propionic acid used as standard of reference)” value did it give?
Answer: > 3

Question: With `CC(C(=O)O)c1ccc(-c2ccc(F)cc2F)c(F)c1` (stereo not drawn) [2-(2,2',4'-trifluoro-4-biphenylyl)propionic acid] as the compound, how does the “ADJUVANT ARTHRITIS (activity; 2-(2-fluoro-4-biphenylyl)propionic acid used as standard of reference)” value read?
Answer: > 10

Question: With `CC(C(=O)O)c1ccc(-c2ccc(F)cc2F)c(Cl)c1` (stereo not drawn) [2-(2-chloro-2',4'-difluoro-4-biphenylyl)propionic acid] as the compound, how does the “ADJUVANT ARTHRITIS (activity; 2-(2-fluoro-4-biphenylyl)propionic acid used as standard of reference)” value read?
Answer: > 10

Question: How did the “ADJUVANT ARTHRITIS (activity; 2-(2-fluoro-4-biphenylyl)propionic acid used as standard of reference)” value turn out when `CC(C(=O)O)c1ccc(-c2ccccc2)c(F)c1` (stereo not drawn) [2-(2-fluoro-4-biphenylyl)propionic acid, reference compound] was run?
Answer: 1

Question: For `CC(C(=O)O)c1ccc(-c2ccc(Cl)cc2F)c(F)c1` (stereo not drawn) [2-(4'-chloro-2,2'-difluoro-4-biphenylyl)propionic acid], which “ADJUVANT ARTHRITIS (activity; 2-(2-fluoro-4-biphenylyl)propionic acid used as standard of reference)” value is on record?
Answer: > 3

Same assay, conditions: standard of reference 2-fluoro-4-biphenylylacetic acid

Question: Which “times as active as 2-fluoro-4-biphenylylacetic acid in adjuvant arthritis test” value does the source give for `O=C(O)Cc1ccc(-c2ccc(F)cc2F)c(F)c1` [2,2', 4'-trifluoro-4-biphenylacetic acid, 2,2',4'-trifluoro-4-biphenylylacetic acid] here?
Answer: more than 30 times

From patent publication US4052514A, “Trihalosubstituted biphenylyl propionic acids” (The Boots Company Limited, priority 1971, dated 1977)
